Laboratory results: US10294202B2, “Pyrrolidinones as herbicides” (FMC Corporation, priority 2013, dated 2019)

Legend:
wheat = test: Test A pre-/postemergence herbicide test; type: in vivo, Triticum aestivum; conditions: Postemergence; for Plant response rating, Wheat: 125 g ai/ha, 0 to 100 scale; for Wheat plant response rating (0 to 100 scale, 0 is no effect, 100 is complete control): 500 g ai/ha
Summary of the method: (§1)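 Both application timings used compounds in a non-phytotoxic solvent plus surfactant. Pre-emergence: soil sprayed directly after seeding into loam/sand. Post-emergence: foliage of 2–10 cm seedlings (1–2 leaves) sprayed. Injury rated ~10 days later, 0–100.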

pigweed = test: Test A pre-/postemergence herbicide test; type: in vivo, Amaranthus retroflexus; conditions: for Plant response rating, Pigweed: 0 to 100 scale
Summary of the method: as §1

ryegrass, Italian = test: Test A pre-/postemergence herbicide test; type: in vivo, Lolium multiflorum; conditions: for Plant response rating, Ryegrass, Italian: 0 to 100 scale
Summary of the method: as §1

barnyardgrass [1] = test: Test B flooded paddy test; type: in vivo, Echinochloa crus-galli; conditions: 500 g ai/ha, Flood; scale of 0 to 100 where 0 is no effect and 100 is complete control
Summary of the method: (§2)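 Treatment was made at the 2-leaf stage by dosing the standing floodwater, kept 3 cm above soil level for the whole test. Greenhouse exposure lasted 13 to 15 days. Response is a visual percent rating relative to controls, where a dash indicates no test result.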

barnyardgrass [2] = test: Test A pre-/postemergence herbicide test; type: in vivo, Echinochloa crus-galli
Summary of the method: as §1

blackgrass = test: Test A postemergence herbicide test; type: in vivo, Alopecurus myosuroides; conditions: for Plant response rating, Blackgrass: 125 g ai/ha, 0 to 100 scale; for Blackgrass plant response rating (0 to 100 scale, 0 is no effect, 100 is complete control): 500 g ai/ha
Summary of the method: (§3)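 Injury was rated visually about 10 days after treatment on a 0 (no effect) to 100 (complete control) scale, compared with untreated plants. Test chemicals were sprayed postemergence onto greenhouse plants 2–10 cm high at one to two leaves, grown in a loam–sand blend.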

kochia = test: Test A pre-/postemergence herbicide test; type: in vivo, Kochia scoparia; conditions: for Plant response rating, Kochia: 0 to 100 scale
Summary of the method: as §1

giant foxtail = test: Test A pre-/postemergence herbicide test; type: in vivo, Setaria faberii; conditions: for Plant response rating, Foxtail, Giant: 0 to 100 scale
Summary of the method: as §1

ragweed = test: Test A pre-/postemergence herbicide test; type: in vivo, Ambrosia elatior; conditions: for Plant response rating, Ragweed: 0 to 100 scale
Summary of the method: as §1

sedge, umbrella = test: Test B flooded paddy test; type: in vivo, Cyperus difformis; conditions: 500 g ai/ha, Flood; scale of 0 to 100 where 0 is no effect and 100 is complete control
Summary of the method: as §2

galium = test: Test A postemergence herbicide test; type: in vivo, Galium aparine; conditions: for Plant response rating, Galium: 125 g ai/ha, 0 to 100 scale; for Galium plant response rating (0 to 100 scale, 0 is no effect, 100 is complete control): 500 g ai/ha
Summary of the method: as §3

rice = test: Test B flooded paddy test; type: in vivo, Oryza sativa; conditions: 500 g ai/ha, Flood; scale of 0 to 100 where 0 is no effect and 100 is complete control
Summary of the method: as §2

ducksalad = test: Test B flooded paddy test; type: in vivo, Heteranthera limosa; conditions: 500 g ai/ha, Flood; scale of 0 to 100 where 0 is no effect and 100 is complete control
Summary of the method: as §2

corn = test: Test A pre-/postemergence herbicide test; type: in vivo, Zea mays; conditions: Postemergence; for Plant response rating, Corn: 125 g ai/ha, 0 to 100 scale; for Corn plant response rating (0 to 100 scale, 0 is no effect, 100 is complete control): 500 g ai/ha
Summary of the method: as §1

[3] = 0 is no effect, 100 is complete control
[4] = 125 g ai/ha, visual rating, 0 no effect, 100 complete control, approximately 10 days, preemergence
[5] = Postemergence, 125 g ai/ha, 0 is no effect, 100 is complete control
[6] = preemergence, 500 g ai/ha, 0 is no effect and 100 is complete control
[7] = 125 g ai/ha, visual rating, 0 to 100 scale, 0 no effect, 100 complete control, approximately 10 days, preemergence
[8] = 0 no effect, 100 complete control
[9] = Postemergence, 125 g ai/ha, 0 no effect, 100 complete control

Structure (SMILES)	Wheat plant response rating (0 to 100 scale, 0 is no effect, 100 is complete control) (wheat)	Plant response rating, Pigweed (pigweed; [4])	Pigweed plant response rating (0 to 100 scale, 0 is no effect, 100 is complete control) (pigweed; Postemergence, 500 g ai/ha)	Plant response rating, Ryegrass, Italian (ryegrass, Italian; [4])	Ryegrass, Italian plant response rating (0 to 100 scale, 0 is no effect, 100 is complete control) (ryegrass, Italian; Postemergence, 500 g ai/ha)	Plant response rating, Barnyardgrass (barnyardgrass [1])	Plant response rating, Barnyardgrass (barnyardgrass [2]; [7])	Barnyardgrass plant response rating (0 to 100 scale, 0 is no effect, 100 is complete control) (barnyardgrass [2]; Postemergence, 500 g ai/ha)	Blackgrass plant response rating (0 to 100 scale, 0 is no effect, 100 is complete control) (blackgrass)	Plant response rating, Kochia (kochia; [4])	Kochia plant response rating (0 to 100 scale, 0 is no effect, 100 is complete control) (kochia; Postemergence, 500 g ai/ha)	Plant response rating, Foxtail, Giant (giant foxtail; [4])	Foxtail, Giant plant response rating (0 to 100 scale, 0 is no effect, 100 is complete control) (giant foxtail; Postemergence, 500 g ai/ha)	Plant response rating, Ragweed (ragweed; [4])	Ragweed plant response rating (0 to 100 scale, 0 is no effect, 100 is complete control) (ragweed; Postemergence, 500 g ai/ha)	Plant response rating, Sedge, Umbrella (sedge, umbrella)	Galium plant response rating (0 to 100 scale, 0 is no effect, 100 is complete control) (galium)	Plant response rating, Rice (rice)	Plant response rating, Ducksalad (ducksalad)	Corn plant response rating (0 to 100 scale, 0 is no effect, 100 is complete control) (corn)	also measured
Cc1ccccc1NC(=O)C1C(=O)NCC1c1cccc(OC(F)F)c1 (stereo not drawn) [Compound 230]	20	0	0	0	20	60	30	90	50	0	40	90	90	0	30	0	50	0	75	40	Plant response rating, Wheat (wheat; [3]): 20; Plant response rating, Pigweed (pigweed; [5]): 0; Plant response rating, Pigweed (pigweed; [6]): 20; Plant response rating, Ryegrass, Italian (ryegrass, Italian; [5]): 0; Plant response rating, Ryegrass, Italian (ryegrass, Italian; [6]): 30; Plant response rating, Barnyardgrass (barnyardgrass [2]; Postemergence, 125 g ai/ha, 0 to 100 scale, 0 is no effect, 100 is complete control): 60; Plant response rating, Barnyardgrass (barnyardgrass [2]; preemergence, 500 g ai/ha, 0 to 100 scale, 0 is no effect and 100 is complete control): 90; Plant response rating, Blackgrass (blackgrass; [3]): 20; Plant response rating, Kochia (kochia; [5]): 0; Plant response rating, Kochia (kochia; [6]): 30; Plant response rating, Foxtail, Giant (giant foxtail; [5]): 70; Plant response rating, Foxtail, Giant (giant foxtail; [6]): 90; Plant response rating, Ragweed (ragweed; [5]): 0; Plant response rating, Ragweed (ragweed; [6]): 20; Plant response rating, Galium (galium; [3]): 20; Plant response rating, Corn (corn; [3]): 20
Cc1ccc(C2CNC(=O)C2C(=O)Nc2ccccc2Cl)cc1F (racemic) [Compound 148]	0	0	0	0	0	40	30	90	0	30	0	40	30	0	0	0	40	0	100	0	Plant response rating, Wheat (wheat; [8]): 0; Plant response rating, Pigweed (pigweed; [9]): 0; Plant response rating, Pigweed (pigweed; preemergence, 500 g ai/ha): 0; Plant response rating, Ryegrass, Italian (ryegrass, Italian; [9]): 0; Plant response rating, Ryegrass, Italian (ryegrass, Italian; preemergence, 500 g ai/ha): 0; Plant response rating, Barnyardgrass (barnyardgrass [2]; Postemergence, 125 g ai/ha, 0 to 100 scale, 0 no effect, 100 complete control): 50; Plant response rating, Barnyardgrass (barnyardgrass [2]; preemergence, 500 g ai/ha, 0 to 100 scale (0 no effect, 100 complete control)): 90; Plant response rating, Blackgrass (blackgrass; [8]): 0; Plant response rating, Kochia (kochia; [9]): 0; Plant response rating, Kochia (kochia; preemergence, 500 g ai/ha): 30; Plant response rating, Foxtail, Giant (giant foxtail; [9]): 20; Plant response rating, Foxtail, Giant (giant foxtail; preemergence, 500 g ai/ha): 90; Plant response rating, Ragweed (ragweed; [9]): 0; Plant response rating, Ragweed (ragweed; preemergence, 500 g ai/ha): 0; Plant response rating, Galium (galium; [8]): 0; Plant response rating, Corn (corn; [8]): 0
